Assay [1] has as its system MCF-7 cells. As to the kind of experiment: CCK-8 antiproliferative assay, MCF-7. To be noted: Homo sapiens, MCF7; cell viability (CCK-8), 48 h. In kind it is cell-based. As to the method:
(§1) To evaluate the anticancer potential of the synthesized compounds, a panel of six human and murine cancer cell lines representing different tissue origins was selected, including MCF-7 (human breast adenocarcinoma), MDA-MB-231 (human triple-negative breast cancer), A549 (human non-small cell lung cancer), HeLa (human cervical cancer), A375 (human melanoma), and B16-F10 (murine melanoma) (Table 2). […] DMSO was used as the vehicle control, and all experiments were performed in triplicate to ensure reproducibility.
(§2) Human breast cancer cells (MCF-7), human lung cancer cells (A549), human cervical cancer cells (HeLa), human triple-negative breast cancer cells (MDA-MB-231), and human malignant melanoma cells (A375) were cultured in DMEM. Mouse melanoma cells (B16F10) were maintained in RPMI-1640 medium. All media were supplemented with 10% fetal bovine serum and 1% penicillin-streptomycin (Life Technologies, Carlsbad, CA, USA) and maintained at 37 °C in a humidified atmosphere with 5% CO2.
(§3) The cytotoxicity of the test compounds was evaluated against MCF-7, A549, HeLa, MDA-MB-231, A375, and B16F10 using the CCK-8 assay. Cells were seeded into 96-well plates at a density of 5000 cells/well. After removing the medium, 100 μL of medium with 0.1% DMSO containing test compounds at different concentrations was added to each well and incubated at 37 °C for another 48 h. The CCK-8 solution was added and incubated for another 1 h, and then, the absorbance was detected with a microplate reader at a wavelength of 450 nm. The IC50 values were calculated by nonlinear regression analysis using GraphPad Prism 8.0.2. All the experiments were repeated at least three times.

Assay [2] deals with MDA-MB-231 cells. In words: CCK-8 antiproliferative assay, MDA-MB-231. The conditions noted are these: Homo sapiens, cell viability (CCK-8), 48 h. The assay is classed as cell-based. As to the method: as §1, §2, §3
In general terms: Tetrazolium assays rely on reduction of a dye to a coloured formazan, in cell work by metabolically active cells.

Assay [3] has as its system B16-F10 cells. As to the kind of experiment: CCK-8 antiproliferative assay, B16-F10. The assay is classed as cell-based, murine. To be noted: Mus musculus, cell viability (CCK-8), 48 h. As to the method: as §1, §2, §3
In assay [4] the target is T1, purified porcine brain tubulin (Sus scrofa, UniProt P02554).
T1 construct: purified porcine brain tubulin; from tissue; host or cells: porcine brain
As to the kind of experiment: Biolayer interferometry (BLI) binding to tubulin. To be noted: immobilized tubulin, 1:1 binding model, mean ± SD, triplicate. As to the method: To detect the direct interaction between the synthesized compounds and tubulin, biolayer interferometry (BLI) experiments were performed using purified porcine brain tubulin immobilized on Super Streptavidin (SSA) biosensor [30]. […] Association and dissociation kinetics were monitored in real time, and equilibrium dissociation constants (KD) were determined by global fitting of the sensorgrams to a 1:1 binding model. All measurements were conducted in triplicate, and results are reported as mean ± SD.
BLI assays were performed on an Octet RED96 instrument (FortéBio, Pall Life Sciences, Menlo Park, CA, USA) at 25 °C in PBS buffer supplemented with 0.02% (v/v) Tween-20 as the running buffer. Biotinylated tubulin proteins (3 μg/mL) were immobilized onto Super Streptavidin (SSA) biosensors. Association and dissociation were monitored for 60 s each. […] Reference subtraction was performed using sensors incubated in running buffer without protein loading to correct for baseline drift. Data were analyzed using Octet Data Analysis software (version 9.0), and equilibrium dissociation constants (KD) were determined by fitting the curves to a 1:1 binding model. All measurements were performed in triplicate, and results are reported as mean ± SD.
BLI assays were performed on an Octet RED96 instrument (FortéBio, Pall Life Sciences) at 25 °C in PBS buffer supplemented with 0.02% (v/v) Tween-20 as the running buffer. Biotinylated tubulin proteins (3 μg/mL) were immobilized onto Super Streptavidin (SSA) biosensors. Association and dissociation were monitored for 60 s […]
Reference subtraction was performed using sensors incubated in running buffer without protein loading to correct for baseline drift. Data were analyzed using Octet Data Analysis software (version 9.0), and equilibrium dissociation constants (KD) were determined by fitting the curves to a 1:1 binding model. All measurements were performed in triplicate, and results are reported as mean ± SD.

Assay [5] deals with A375 cells. In words: CCK-8 antiproliferative assay, A375. To be noted: Homo sapiens, A-375; cell viability (CCK-8), 48 h. The assay is classed as cell-based. How it is done:
as §1, §2, §3

Assay [6] deals with HeLa cells. In words: CCK-8 antiproliferative assay, HeLa. The conditions noted are these: Homo sapiens, cell viability (CCK-8), 48 h. The assay is classed as cell-based. As to the method: as §1, §2, §3
Assay [7] deals with A549 cells. In words: CCK-8 antiproliferative assay, A549. The assay is classed as cell-based. The conditions noted are these: Homo sapiens, cell viability (CCK-8), 48 h. As to the method: as §1, §2, §3
The target of assay [8] is T2, Porcine brain tubulin protein (Sus scrofa, UniProt P02554).
T2 construct: Porcine brain tubulin protein was dissolved in EM buffer; from tissue; host or cells: porcine brain
As to the kind of experiment: In vitro tubulin polymerization assay. The assay is classed as biochemical. How it is done:
The ability of compound 3g to disrupt microtubule dynamics was assessed using an in vitro tubulin polymerization assay.
Porcine brain tubulin protein was dissolved in EM buffer containing 5% glycerol (80 mM PIPES, 2 mM GTP, 2 mM MgCl2, and 0.5 mM EGTA, pH 6.9). Compounds were diluted in EM buffer to final concentrations of 50, 25, 10, 5, and 2.5 μM and added to a pre-warmed 384-well plate, followed by pre-incubation at 37 °C. Subsequently, 14 μL of the tubulin-GTP mixture was added to each well containing the test compounds. Tubulin polymerization was monitored by measuring absorbance at 340 nm every minute for 60 min. […] Each assay was performed in triplicate.
Absorbance at 340 nm was determined every 1 min.

For assay [9], the system named is B16F10 melanoma tumors in BALB/c mice. In words: In vivo antitumor efficacy, subcutaneous B16-F10 melanoma model. The arrangement: species or system mouse. The conditions noted are these: paclitaxel 10 mg/kg i.p. once daily, 14 days, from tumor weight. As to the method:
The in vivo antitumor activity of compound 3g was evaluated using a mouse melanoma tumor model in BALB/c mice. Tumors were established by subcutaneous inoculation of B16F10 cells, and treatment was initiated when tumors reached a measurable size. Mice were administered vehicle control, paclitaxel (PTX, 10 mg/kg), or compound 3g (20 and 50 mg/kg) via intraperitoneal injection once daily for 14 consecutive days.
All animal procedures were approved by the Animal Ethics Committee of the Naval Medical University (permit number: EC11-055). Male BALB/c mice (6–8 weeks old, average initial body weight approximately 18–20 g) were purchased from Shanghai SLAC Laboratory Animal Co., Ltd. The inhibitory effect of compound 3g was evaluated using a subcutaneous B16-F10 melanoma xenograft model. Log-phase B16F10 cells were suspended in PBS and subcutaneously injected into mice (200 μL containing 8 × 10^5 cells per mouse) to establish tumors. Mice were randomly divided into control and treatment groups (n = 8). Compound 3g and paclitaxel were dissolved in a vehicle consisting of DMSO:PEG:Tween-80:saline (v/v/v/v, 5:35:10:50) to the desired concentrations. Treatments (paclitaxel, 10 mg/kg; compound 3g, 20 and 50 mg/kg, doses calculated on a body-weight basis) and vehicle were administered once daily via intraperitoneal injection for 14 consecutive days. Body weights were monitored throughout the study to assess acute toxicity. Tumor volumes were measured using calipers and calculated with the formula: a × b^2 × 0.5, where a and b represent the larger and smaller tumor diameters, respectively. On day 14, mice were sacrificed and tumors were excised and weighed. […] Major organs (liver and kidneys) were collected, fixed in 4% paraformaldehyde, processed into paraffin sections, stained with hematoxylin and eosin (H&E), and examined microscopically.
Murine melanoma B16-F10 xenograft tumors were established in mice, which were then administered vehicle, PTX (10 mg/kg per day), compound 3g (20 mg/kg per day), and compound 3g (50 mg/kg per day) for 14 days. […]

Each structure is given as a SMILES string.

T1 sequence (P02554 whole entry): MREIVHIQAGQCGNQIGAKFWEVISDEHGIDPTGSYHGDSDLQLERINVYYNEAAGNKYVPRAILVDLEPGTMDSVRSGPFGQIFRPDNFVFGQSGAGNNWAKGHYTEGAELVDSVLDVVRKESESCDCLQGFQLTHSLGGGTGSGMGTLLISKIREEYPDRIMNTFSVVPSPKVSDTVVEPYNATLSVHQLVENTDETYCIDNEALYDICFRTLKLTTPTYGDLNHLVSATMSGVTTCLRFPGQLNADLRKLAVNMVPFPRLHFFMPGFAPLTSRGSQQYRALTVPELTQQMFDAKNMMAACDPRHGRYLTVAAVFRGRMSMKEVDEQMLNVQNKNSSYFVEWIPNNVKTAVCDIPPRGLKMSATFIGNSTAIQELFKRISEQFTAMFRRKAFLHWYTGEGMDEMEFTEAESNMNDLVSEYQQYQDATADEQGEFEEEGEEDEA
T1 sequence (P02550 whole entry partner): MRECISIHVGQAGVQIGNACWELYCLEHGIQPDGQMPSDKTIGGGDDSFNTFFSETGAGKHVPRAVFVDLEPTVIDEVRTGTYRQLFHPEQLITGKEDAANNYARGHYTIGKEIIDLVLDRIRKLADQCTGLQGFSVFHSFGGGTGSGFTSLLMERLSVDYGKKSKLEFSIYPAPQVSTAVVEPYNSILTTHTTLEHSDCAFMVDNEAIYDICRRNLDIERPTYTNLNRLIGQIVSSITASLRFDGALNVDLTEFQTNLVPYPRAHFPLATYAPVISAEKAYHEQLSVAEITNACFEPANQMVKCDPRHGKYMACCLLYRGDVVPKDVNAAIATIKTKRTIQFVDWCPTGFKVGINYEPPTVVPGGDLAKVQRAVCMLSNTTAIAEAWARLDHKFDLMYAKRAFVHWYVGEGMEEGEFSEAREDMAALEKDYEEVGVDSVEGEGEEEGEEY
T2 sequence (P02554 whole entry): as the sequence (P02554 whole entry) above
T2 sequence (P02550 whole entry partner): as the sequence (P02550 whole entry partner) above

A word on the IC50: it is the midpoint of a concentration-inhibition curve. Usually Kd stands for the constant that tells how readily two partners part at equilibrium. Read a high Kd as lower affinity. With `COc1cc(-n2ccc3ccc(-c4ccccc4C#N)cc32)cc(OC)c1OC` [3l, 2-(1-(3,4,5-trimethoxyphenyl)-1H-indol-6-yl)benzonitrile], the IC50 in assay [1], in [2], in assay [3], in assay [5], in assay [6] and in assay [7] was above 100 µM each time. Further, in assay [4], the KD result is “low micromolar range”. In addition, binding in assay [4] was characterised by a dissociation constant (Kd) of 26 ± 3.38 µM.

On to `COc1cc(-n2ccc3ccc(Cl)cc32)cc(OC)c1OC` [H1], for which the IC50 in assay [8] (read-out: IC50, inhibitory effect on tubulin polymerization) stood at 101 µM.

Turning to `CC(=O)O[C@H]1C(=O)[C@@]2(C)[C@H]([C@H](OC(=O)c3ccccc3)[C@]3(O)C[C@H](OC(=O)[C@H](O)[C@@H](NC(=O)c4ccccc4)c4ccccc4)C(C)=C1C3(C)C)[C@]1(OC(C)=O)CO[C@@H]1C[C@@H]2O` [paclitaxel, reference compound], in [9], the “tumor growth inhibition (TGI)” value is 59.84%. Further, the “effect on tubulin polymerization (positive controls)” value in assay [8] (10 μM) is recorded as “stabilizing”.

In the case of `COc1cc(-n2ccc3ccc(-c4ccc(C#N)cc4)cc32)cc(OC)c1OC` [3m, 4-(1-(3,4,5-trimethoxyphenyl)-1H-indol-6-yl)benzonitrile], the IC50 in assay [1], in assay [2], in [3], in assay [5], in assay [6] and in assay [7] was above 100 µM each time. Besides, the KD entry in [4] was “undetectable binding”. The compound also returned an equilibrium dissociation constant (Kd) in [4] above 200 µM.

As for `COc1cc(-n2ccc3ccc(-c4ccccc4C(C)C)cc32)cc(OC)c1OC` [3f, 6-(2-isopropylphenyl)-1-(3,4,5-trimethoxyphenyl)-1H-indole], the 50% inhibitory concentration (IC50) in assay [1] was 17.4 ± 0.35 µM; in assay [2], 21.37 ± 0.12 µM; in [3], 6.67 ± 0.29 µM; in [5], 21.1 ± 1.17 µM; in assay [6], 41.8 ± 1.11 µM; in assay [7] it was 87.4 ± 3.45 µM. Moreover, the affinity in assay [4], expressed as Kd, was 47 ± 5.62 µM.

For the compound `COc1cc(-n2ccc3ccc(-c4ccc(C#N)cc4F)cc32)cc(OC)c1OC` [3n, 3-fluoro-4-(1-(3,4,5-trimethoxyphenyl)-1H-indol-6-yl)benzonitrile], the IC50 in [1] was 14.2 ± 0.51 µM; in assay [2], 41.4 ± 1.21 µM; in assay [3] it was 68.9 ± 3.17 µM; in assay [5], 16.1 ± 0.38 µM; in assay [6], 65 ± 3.2 µM; in [7] it was 48 ± 2.56 µM. For the same compound, binding in [4] was characterised by a dissociation constant (Kd) of 220 ± 30.8 µM.

For `CCc1ccccc1-c1ccc2ccn(-c3cc(OC)c(OC)c(OC)c3)c2c1` [3d, 6-(2-ethylphenyl)-1-(3,4,5-trimethoxyphenyl)-1H-indole], the half-inhibitory concentration (IC50) in assay [1] came out at 34.2 ± 1.62 µM; in assay [2], 23.4 ± 0.44 µM; in [3], 6.49 ± 0.4 µM; in [5] it was 24.84 ± 0.16 µM; in assay [6], 46.6 ± 3.65 µM; in assay [7], 60.2 ± 4.17 µM. Besides, the KD entry in assay [4] is reported as “low micromolar range”. Further, in assay [4], the Kd came out at 24 ± 2.13 µM.

In the case of `COc1cc(-n2ccc3ccc(-c4cccc(OC(F)(F)F)c4)cc32)cc(OC)c1OC` [3h, 6-(3-(trifluoromethoxy)phenyl)-1-(3,4,5-trimethoxyphenyl)-1H-indole], the 50% inhibitory concentration (IC50) in assay [1], in [2], in assay [3], in assay [5], in assay [6] and in [7] was above 100 µM each time. Moreover, the KD result in assay [4] is recorded as “undetectable binding”. The compound further gave a dissociation constant Kd in assay [4] above 200 µM.

In the case of `COc1cc(-n2ccc3ccc(-c4ccc(Oc5ccccc5)cc4)cc32)cc(OC)c1OC` [3o, 6-(4-Phenoxyphenyl)-1-(3,4,5-trimethoxyphenyl)-1H-indole], the IC50 in assay [1], in assay [2], in assay [3], in [5], in [6] and in assay [7] was above 100 µM each time. In addition, in assay [4], the affinity, expressed as Kd, was 31 ± 3.41 µM.

The values above are taken from article PMC12693167, “Design, Synthesis and Anticancer Activity of 6-Substituted-1-(3,4,5-trimethoxyphenyl)-1H-indole Against Tubulin Polymerisation” (Molecules, 2025).
